Consider one molecule from publication PMC6934184, “Selective DNA-PKcs inhibition extends the therapeutic index of localized radiotherapy and chemotherapy” (The Journal of Clinical Investigation, 2019).

The experiment has as its target T1, NTRK1 (TRKA) (Homo sapiens, UniProt P04629).
T1 construct: purchased Thermo Fisher Scientific (Life Technologies) SelectScreen
Description: SelectScreen Z'LYTE. The experiment is classed as biochemical. The method, boiled down:
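NU5455 was profiled across the SelectScreen Broad panel of kinase activity and binding assays. Z'LYTE reactions such as CSF1R ran at apparent Km ATP, while the Adapta CAMK1 assay used ATP listed as 10. Values are given as percent.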

The inhibition is the relative decrease from the control value, in per cent. A higher inhibition goes with a response far below the control.

Each structure is given as a SMILES string.

T1 sequence (P04629 33-796): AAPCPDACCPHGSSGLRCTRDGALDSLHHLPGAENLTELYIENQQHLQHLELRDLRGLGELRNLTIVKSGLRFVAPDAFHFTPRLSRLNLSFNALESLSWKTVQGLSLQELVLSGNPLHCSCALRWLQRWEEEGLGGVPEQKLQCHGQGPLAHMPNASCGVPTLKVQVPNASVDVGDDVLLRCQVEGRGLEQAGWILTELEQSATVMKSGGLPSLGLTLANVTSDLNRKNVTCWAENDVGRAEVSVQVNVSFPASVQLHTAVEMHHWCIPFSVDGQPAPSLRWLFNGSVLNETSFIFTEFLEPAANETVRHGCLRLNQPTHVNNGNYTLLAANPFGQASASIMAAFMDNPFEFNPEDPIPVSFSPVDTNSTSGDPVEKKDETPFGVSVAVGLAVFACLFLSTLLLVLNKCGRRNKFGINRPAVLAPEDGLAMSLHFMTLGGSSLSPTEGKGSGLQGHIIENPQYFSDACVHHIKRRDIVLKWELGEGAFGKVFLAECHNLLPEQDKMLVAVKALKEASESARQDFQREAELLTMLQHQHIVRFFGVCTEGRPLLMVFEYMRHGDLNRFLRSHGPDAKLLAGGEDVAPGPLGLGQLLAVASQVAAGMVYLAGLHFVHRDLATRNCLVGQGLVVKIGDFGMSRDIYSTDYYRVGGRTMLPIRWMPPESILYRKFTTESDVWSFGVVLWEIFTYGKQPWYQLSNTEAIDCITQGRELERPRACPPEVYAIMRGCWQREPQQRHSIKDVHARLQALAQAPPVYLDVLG

Take `CN(C(=O)CN1CCOCC1)c1ccc2sc3c(-c4cccc5c(=O)cc(N6CC7CCC(C6)O7)oc45)cccc3c2c1` [NU5455]: the inhibition at 1 µM came to 1.3%.
